Experimental data as given in patent US20170008888A1 (KYORIN PHARMACEUTICAL CO., LTD., priority 2014, published 2017).
Like-named read-outs stand apart in the source and are kept apart here.

Experiments:
Format in all cases: binding
[1] = test system: AurB or AurC; test: Probe-based (AX9989) kinase profiling in Jurkat lysate: AurB or AurC; settings: for Kinase inhibition % at indicated screening concentration: AurB or AurC: screening concentration 1.0 μM
Method in brief: (§1)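 Jurkat lysate, HEPES pH 7.5 buffer + 20 mM MnCl2; cpd 15 min RT; AX9989 ATP probe 5 μM final, RT. Trypsin digest, streptavidin capture, LC/MS; % inhibition vs vehicle from labeled-peptide signal.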

[2] = target: T1, AurA (Homo sapiens, UniProt O14965); test: Probe-based (AX9989) kinase profiling in Jurkat lysate: AurA; settings: for inhibition at 10 µM: screening concentration 10 μM
T1 construct: screened for activity against several kinases in Jurkat cells; endogenous in cells; host or cells: Jurkat cell lysate
T1 sequence (O14965 1-403): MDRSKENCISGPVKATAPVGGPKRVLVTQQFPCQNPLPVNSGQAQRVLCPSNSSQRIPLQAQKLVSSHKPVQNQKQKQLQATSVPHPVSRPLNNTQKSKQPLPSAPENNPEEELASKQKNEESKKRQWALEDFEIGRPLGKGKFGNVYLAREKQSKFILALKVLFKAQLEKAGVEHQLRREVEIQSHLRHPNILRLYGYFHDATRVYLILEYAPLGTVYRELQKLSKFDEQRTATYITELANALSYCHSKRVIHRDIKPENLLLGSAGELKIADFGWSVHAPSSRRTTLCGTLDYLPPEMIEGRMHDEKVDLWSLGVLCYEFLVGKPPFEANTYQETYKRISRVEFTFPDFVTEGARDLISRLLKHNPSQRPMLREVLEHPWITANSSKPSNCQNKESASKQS
Method in brief: as §1

[3] = test system: AMPKa1 or AMPKa2; test: Probe-based (AX9989) kinase profiling in Jurkat lysate: AMPKa1 or AMPKa2; settings: for Kinase inhibition % at indicated screening concentration: AMPKa1 or AMPKa2: screening concentration 1.0 μM
Method in brief: as §1

[4] = target: T2, TAO2 (Homo sapiens, UniProt Q9UL54); test: Probe-based (AX9989) kinase profiling in Jurkat lysate: TAO2; settings: for inhibition at 10 µM: screening concentration 10 μM
T2 construct: screened for activity against several kinases in Jurkat cells; endogenous in cells; host or cells: Jurkat cell lysate
T2 sequence (Q9UL54 1-1235): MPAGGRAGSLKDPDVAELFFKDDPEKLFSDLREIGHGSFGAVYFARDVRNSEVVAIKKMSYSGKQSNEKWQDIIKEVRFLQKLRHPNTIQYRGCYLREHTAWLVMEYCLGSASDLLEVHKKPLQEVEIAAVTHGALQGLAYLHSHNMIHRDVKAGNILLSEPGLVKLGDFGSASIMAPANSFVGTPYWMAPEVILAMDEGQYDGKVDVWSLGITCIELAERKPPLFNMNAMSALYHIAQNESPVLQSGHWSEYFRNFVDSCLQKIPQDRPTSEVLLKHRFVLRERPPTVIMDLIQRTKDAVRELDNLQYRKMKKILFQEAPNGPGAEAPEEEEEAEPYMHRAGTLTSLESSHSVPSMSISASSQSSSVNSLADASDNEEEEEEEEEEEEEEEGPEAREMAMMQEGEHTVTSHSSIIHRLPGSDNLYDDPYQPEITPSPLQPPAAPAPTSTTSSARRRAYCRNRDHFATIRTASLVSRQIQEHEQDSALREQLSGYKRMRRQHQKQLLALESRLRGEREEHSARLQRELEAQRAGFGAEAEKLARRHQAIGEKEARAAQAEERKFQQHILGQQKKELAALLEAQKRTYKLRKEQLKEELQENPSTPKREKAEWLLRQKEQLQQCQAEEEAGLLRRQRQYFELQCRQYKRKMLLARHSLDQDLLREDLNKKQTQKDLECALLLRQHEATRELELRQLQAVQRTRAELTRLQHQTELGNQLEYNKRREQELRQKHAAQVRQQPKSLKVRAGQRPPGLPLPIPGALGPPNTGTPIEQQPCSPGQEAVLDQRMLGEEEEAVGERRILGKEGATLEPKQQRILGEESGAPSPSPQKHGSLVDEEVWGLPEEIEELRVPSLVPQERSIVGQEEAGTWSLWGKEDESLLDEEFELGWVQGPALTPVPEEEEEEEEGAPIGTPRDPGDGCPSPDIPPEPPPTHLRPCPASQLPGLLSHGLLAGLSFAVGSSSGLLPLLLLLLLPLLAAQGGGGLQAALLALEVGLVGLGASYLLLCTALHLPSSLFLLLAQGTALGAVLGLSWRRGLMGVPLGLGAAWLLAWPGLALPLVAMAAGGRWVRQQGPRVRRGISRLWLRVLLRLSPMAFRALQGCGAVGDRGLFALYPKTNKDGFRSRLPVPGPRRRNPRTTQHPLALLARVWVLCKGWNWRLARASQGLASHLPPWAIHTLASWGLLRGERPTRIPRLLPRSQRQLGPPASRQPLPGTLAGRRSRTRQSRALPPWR
Method in brief: as §1

[5] = read-out: AurA Inhibition % at indicated screening concentration
[6] = read-out: TAO2 Inhibition % at indicated screening concentration
[7] = screening concentration 1 μM, read-out: AurA Inhibition % at indicated screening concentration
[8] = screening concentration 1 μM, read-out: TAO2 Inhibition % at indicated screening concentration
[9] = screening concentration 1.0 μM, read-out: Kinase inhibition % at indicated screening concentration: AurA
[10] = screening concentration 1.0 μM, read-out: Kinase inhibition % at indicated screening concentration: TAO2

SMILES	AurB or AurC Inhibition % at indicated screening concentration ([1]; screening concentration 10 μM)	inhibition at 10 µM [2, 5] [%]	AMPKa1 or AMPKa2 Inhibition % at indicated screening concentration ([3]; screening concentration 10 μM)	inhibition at 10 µM [4, 6] [%]	AurB or AurC Inhibition % at indicated screening concentration ([1]; screening concentration 1 μM)	inhibition at 1 µM [2, 7] [%]	AMPKa1 or AMPKa2 Inhibition % at indicated screening concentration ([3]; screening concentration 1 μM)	inhibition at 1 µM [4, 8] [%]	Kinase inhibition % at indicated screening concentration: AurB or AurC [1]	inhibition at 1 µM [2, 9] [%]	Kinase inhibition % at indicated screening concentration: AMPKa1 or AMPKa2 [3]	inhibition at 1 µM [4, 10] [%]
CN1C(=O)c2c(F)ccc(F)c2Oc2cc(N[C@H]3CC[C@H](O)CC3)ncc21 [Compound T97]	E (E is ≦35%)	≤ 35	E (E is ≦35%)	50 to 75								
CCOc1cc(C(=O)N(C)[C@H]2CC[C@H](O)CC2)ccc1Nc1cc2c(cn1)N(C)C(=O)c1ccccc1N2C [Compound T64]					E (E is ≦35%)	≤ 35	E (E is ≦35%)	≤ 35				
CCOc1cc(C(=O)N2CCC(NC3CCN(C)CC3)C2)ccc1Nc1cc2c(cn1)N(C)C(=O)c1ccccc1N2C (stereo not shown) [Compound T42]					E (E is ≦35%)	≤ 35	E (E is ≦35%)	≤ 35				
CN1C(=O)c2ccccc2N(C)c2cc(N[C@H]3CC[C@H](N4CCCC4)CC3)ncc21 [Compound 74]									E (E is ≦35%)	≤ 35	E (E is ≦35%)	≤ 35
CCOc1cc(C(=O)N[C@H]2CC[C@H](O)CC2)ccc1Nc1cc2c(cn1)N(C)C(=O)c1ccccc1N2C [Compound T62]					E (E is ≦35%)	≤ 35	E (E is ≦35%)	≤ 35				
CCOc1cc(C(=O)NC2CCOCC2)ccc1Nc1cc2c(cn1)N(C)C(=O)c1ccccc1N2C [Compound 80]									E (E is ≦35%)	≤ 35	E (E is ≦35%)	≤ 35
CCOc1cc(C(=O)NCCn2ccnc2)ccc1Nc1cc2c(cn1)N(C)C(=O)c1ccccc1N2C [Compound 84]									E (E is ≦35%)	≤ 35	E (E is ≦35%)	≤ 35
CC(C)Oc1cc(C(=O)N2CCC[C@H](O)C2)ccc1Nc1cc2c(cn1)N(C)C(=O)c1ccccc1N2C [Compound T48]	E (E is ≦35%)	≤ 35	E (E is ≦35%)	≤ 35								
CCOc1cc(C(=O)N2CCC(NCCF)C2)ccc1Nc1cc2c(cn1)N(C)C(C(F)(F)F)c1ccccc1N2C (stereo not shown) [Compound T54]	E (E is ≦35%)	≤ 35	E (E is ≦35%)	≤ 35								
CCOc1cc(C(=O)N2CC[C@@H](NCCF)C2)ccc1Nc1cc2c(cn1)N(C)C(=O)c1ccccc1N2C [Compound T9]					E (E is ≦35%)	≤ 35	E (E is ≦35%)	≤ 35				
